# Source: patent US11697648B2, “Fused pyrimidine pyridinone compounds as JAK inhibitors” (THERAVANCE BIOPHARMA R&D IP, LLC, priority 2019, dated 2023)
# Tests used:
# [1] = target: JAK1 (Homo sapiens (Human), UniProt P23458); experiment: Biochemical JAK1 kinase assay (LanthaScreen)
# Outline: (§1)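 GST-JAK + GFP-STAT1 peptide, HEPES pH 7.5/MgCl2/EGTA/Brij-35 buffer; cpd preincubation 1 h RT; ATP start, 1 h RT; stop with 10 mM EDTA + 2 nM Tb-anti-pSTAT1; TR-FRET 520/495. 4-parameter IC50 → pKi (Cheng-Prusoff).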
# [2] = target: JAK2 (Homo sapiens (Human), UniProt O60674); experiment: Biochemical JAK2 kinase assay (LanthaScreen)
# Outline: as §1
# [3] = target: JAK3 (Homo sapiens (Human), UniProt P52333); experiment: Biochemical JAK3 kinase assay (LanthaScreen)
# Outline: as §1
# [4] = target: Tyk2 (Homo sapiens (Human), UniProt P29597); experiment: Biochemical Tyk2 kinase assay (LanthaScreen)
# Outline: as §1
# [5] = tested on: IL-2 stimulated STAT5 phosphorylation in Tall-1 human T cell line (JAK3); experiment: Cellular JAK3 potency assay: inhibition of IL-2 stimulated pSTAT5 in Tall-1 T cells; assay type: cell-based
# Outline: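 Tall-1 cells, 45,000 per well, preincubated 1 hour with compound at 37 °C, then stimulated 30 minutes with IL-2 at 300 ng/ml final. pSTAT5 (Tyr694/699) in lysates quantified by AlphaLISA SureFire Ultra. pIC50 derived from inhibition curves, given as mean with SD.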
# [6] = selectivity JAK3 over JAK1, difference of pKi
# [7] = IL-2 stimulated pSTAT5, Tall-1 T cells
# Tyk2, sequence (P29597 whole entry): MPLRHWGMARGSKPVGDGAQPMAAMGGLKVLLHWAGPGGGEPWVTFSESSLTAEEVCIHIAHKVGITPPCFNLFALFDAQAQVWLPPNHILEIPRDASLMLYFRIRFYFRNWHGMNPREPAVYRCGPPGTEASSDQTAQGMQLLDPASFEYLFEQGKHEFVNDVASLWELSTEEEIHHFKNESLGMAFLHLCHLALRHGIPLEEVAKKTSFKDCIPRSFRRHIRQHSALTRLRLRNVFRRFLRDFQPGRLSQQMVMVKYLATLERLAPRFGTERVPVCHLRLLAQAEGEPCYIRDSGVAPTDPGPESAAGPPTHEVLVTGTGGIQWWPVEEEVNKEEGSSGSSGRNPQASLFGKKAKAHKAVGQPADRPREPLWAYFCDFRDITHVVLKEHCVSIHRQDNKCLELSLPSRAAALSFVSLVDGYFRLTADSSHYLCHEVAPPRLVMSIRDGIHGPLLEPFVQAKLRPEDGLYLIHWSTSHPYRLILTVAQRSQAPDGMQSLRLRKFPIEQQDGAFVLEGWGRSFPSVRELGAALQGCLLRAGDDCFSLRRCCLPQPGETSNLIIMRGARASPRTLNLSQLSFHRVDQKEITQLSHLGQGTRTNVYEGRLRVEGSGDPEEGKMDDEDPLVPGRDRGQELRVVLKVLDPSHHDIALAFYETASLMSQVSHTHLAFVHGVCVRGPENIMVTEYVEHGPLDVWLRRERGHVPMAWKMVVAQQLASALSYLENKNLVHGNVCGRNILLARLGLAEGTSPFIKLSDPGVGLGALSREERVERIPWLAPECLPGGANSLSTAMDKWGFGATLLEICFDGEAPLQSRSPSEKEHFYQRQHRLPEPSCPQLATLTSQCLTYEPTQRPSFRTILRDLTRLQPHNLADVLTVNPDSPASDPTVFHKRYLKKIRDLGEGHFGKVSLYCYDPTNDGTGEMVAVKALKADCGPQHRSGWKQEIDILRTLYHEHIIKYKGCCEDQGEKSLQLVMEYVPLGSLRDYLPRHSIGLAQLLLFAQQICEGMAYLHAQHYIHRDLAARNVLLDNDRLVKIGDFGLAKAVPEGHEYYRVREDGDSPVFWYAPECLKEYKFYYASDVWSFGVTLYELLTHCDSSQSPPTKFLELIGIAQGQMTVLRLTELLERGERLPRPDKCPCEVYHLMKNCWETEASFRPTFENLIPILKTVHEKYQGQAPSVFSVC
# JAK1, sequence (P23458 whole entry): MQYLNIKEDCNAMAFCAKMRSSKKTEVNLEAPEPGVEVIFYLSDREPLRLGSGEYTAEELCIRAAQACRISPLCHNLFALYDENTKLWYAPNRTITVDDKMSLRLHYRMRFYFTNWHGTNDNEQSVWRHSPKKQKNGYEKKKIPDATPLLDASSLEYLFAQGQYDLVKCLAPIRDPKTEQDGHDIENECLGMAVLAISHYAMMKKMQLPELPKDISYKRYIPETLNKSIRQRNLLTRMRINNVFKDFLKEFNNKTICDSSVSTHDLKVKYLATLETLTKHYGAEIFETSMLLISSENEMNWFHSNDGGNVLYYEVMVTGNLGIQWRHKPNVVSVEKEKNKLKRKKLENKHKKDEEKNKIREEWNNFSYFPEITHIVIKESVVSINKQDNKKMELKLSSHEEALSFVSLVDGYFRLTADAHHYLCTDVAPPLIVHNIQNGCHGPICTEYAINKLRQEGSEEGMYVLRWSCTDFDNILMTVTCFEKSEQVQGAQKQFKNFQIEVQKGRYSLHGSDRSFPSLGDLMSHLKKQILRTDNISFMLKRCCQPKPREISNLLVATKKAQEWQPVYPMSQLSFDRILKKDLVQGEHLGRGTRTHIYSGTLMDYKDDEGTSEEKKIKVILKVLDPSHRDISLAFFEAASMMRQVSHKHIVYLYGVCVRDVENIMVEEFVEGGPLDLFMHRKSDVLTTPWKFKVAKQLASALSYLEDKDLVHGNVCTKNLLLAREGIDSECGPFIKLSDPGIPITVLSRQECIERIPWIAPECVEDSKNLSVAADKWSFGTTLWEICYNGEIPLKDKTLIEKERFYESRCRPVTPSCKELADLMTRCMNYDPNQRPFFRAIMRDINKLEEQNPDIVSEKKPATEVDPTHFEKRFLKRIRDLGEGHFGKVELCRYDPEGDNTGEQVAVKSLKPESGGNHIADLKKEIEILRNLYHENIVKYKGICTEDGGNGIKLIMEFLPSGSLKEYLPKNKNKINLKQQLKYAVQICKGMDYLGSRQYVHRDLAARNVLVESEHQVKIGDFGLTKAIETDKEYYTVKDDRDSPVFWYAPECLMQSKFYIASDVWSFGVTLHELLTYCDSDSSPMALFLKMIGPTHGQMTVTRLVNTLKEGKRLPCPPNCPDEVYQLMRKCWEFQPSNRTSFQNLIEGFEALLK
# JAK3, sequence (P52333 whole entry): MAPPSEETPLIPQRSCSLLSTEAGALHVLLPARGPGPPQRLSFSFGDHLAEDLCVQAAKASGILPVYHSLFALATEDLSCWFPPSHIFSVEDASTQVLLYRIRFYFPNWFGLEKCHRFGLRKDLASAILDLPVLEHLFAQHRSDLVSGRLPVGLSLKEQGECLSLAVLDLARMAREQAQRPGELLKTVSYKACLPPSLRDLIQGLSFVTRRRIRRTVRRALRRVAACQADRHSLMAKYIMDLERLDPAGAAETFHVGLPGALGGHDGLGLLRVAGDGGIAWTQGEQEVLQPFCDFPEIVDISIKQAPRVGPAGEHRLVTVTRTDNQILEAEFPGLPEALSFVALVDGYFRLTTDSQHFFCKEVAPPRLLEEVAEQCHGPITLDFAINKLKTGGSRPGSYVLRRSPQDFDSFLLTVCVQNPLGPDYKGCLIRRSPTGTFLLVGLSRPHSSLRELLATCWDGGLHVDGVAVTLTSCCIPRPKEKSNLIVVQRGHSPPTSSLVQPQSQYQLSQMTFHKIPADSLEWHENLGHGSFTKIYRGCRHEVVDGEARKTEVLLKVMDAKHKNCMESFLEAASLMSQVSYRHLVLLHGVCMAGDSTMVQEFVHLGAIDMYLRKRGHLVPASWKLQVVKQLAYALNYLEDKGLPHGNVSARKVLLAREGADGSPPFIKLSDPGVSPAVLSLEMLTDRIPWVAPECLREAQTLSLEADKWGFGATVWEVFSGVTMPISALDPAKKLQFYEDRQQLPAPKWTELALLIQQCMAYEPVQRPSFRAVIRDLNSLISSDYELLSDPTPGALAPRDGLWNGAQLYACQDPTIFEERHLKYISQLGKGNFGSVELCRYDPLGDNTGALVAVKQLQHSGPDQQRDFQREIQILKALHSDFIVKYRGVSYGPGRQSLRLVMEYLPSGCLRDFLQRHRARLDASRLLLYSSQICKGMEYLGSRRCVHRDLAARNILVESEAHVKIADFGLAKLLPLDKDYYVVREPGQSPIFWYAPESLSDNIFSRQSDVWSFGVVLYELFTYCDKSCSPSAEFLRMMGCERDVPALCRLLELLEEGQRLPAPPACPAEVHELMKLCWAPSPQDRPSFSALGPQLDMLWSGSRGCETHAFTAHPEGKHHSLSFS
# JAK2, sequence (O60674 whole entry): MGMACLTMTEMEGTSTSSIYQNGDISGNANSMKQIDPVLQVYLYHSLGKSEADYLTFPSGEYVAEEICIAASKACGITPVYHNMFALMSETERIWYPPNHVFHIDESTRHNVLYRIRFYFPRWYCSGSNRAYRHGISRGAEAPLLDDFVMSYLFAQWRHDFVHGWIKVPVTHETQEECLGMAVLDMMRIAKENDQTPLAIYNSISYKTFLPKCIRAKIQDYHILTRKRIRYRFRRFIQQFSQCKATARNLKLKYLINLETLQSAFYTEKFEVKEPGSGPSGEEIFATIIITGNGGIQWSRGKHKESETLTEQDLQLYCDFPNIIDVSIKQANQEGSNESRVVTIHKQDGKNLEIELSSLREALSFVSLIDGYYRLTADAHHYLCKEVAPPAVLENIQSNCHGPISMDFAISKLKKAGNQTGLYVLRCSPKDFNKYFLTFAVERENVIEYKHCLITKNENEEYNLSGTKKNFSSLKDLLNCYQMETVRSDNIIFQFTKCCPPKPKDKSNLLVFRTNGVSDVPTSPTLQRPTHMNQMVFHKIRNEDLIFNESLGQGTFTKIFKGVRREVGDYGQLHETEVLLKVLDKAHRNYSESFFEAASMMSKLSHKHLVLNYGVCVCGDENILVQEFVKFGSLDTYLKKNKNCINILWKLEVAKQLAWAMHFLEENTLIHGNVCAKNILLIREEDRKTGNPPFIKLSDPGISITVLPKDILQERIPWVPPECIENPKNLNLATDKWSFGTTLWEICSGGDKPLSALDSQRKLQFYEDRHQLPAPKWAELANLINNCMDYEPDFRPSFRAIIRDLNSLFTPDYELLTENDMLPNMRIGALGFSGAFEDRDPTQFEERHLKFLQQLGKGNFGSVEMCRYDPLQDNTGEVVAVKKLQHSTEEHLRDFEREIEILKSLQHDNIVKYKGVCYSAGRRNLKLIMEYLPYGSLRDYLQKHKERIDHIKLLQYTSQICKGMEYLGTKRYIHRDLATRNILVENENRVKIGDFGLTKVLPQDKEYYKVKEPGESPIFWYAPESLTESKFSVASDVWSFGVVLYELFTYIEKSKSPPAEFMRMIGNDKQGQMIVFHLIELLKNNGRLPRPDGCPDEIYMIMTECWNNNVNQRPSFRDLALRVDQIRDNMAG
Compound,JAK 1 (pKi) [1],JAK 2 (pKi) [2],JAK 3 (pKi) [3],"JAK3 (pKi)-JAK1 (pKi) [3, 6]",Tyk 2 (pKi) [4],"Tall-1 (pIC50) [5, 7]","JAK3 (pKi)-JAK1 (pKi) ([3]; selectivity, difference of pKi values)",Tall-1 (pIC50) ([5]; IL-2 stimulated pSTAT5 in Tall-1 T cells)
C=CC(=O)N1CC(CCn2c(=O)ccc3cnc(Nc4ccc(N5CCN(C)C[C@@H]5C)cc4)nc32)C1 [Example 163],E (E represents a pKi value of 7 or below (Ki of 100 nM or above)),E (E represents a pKi value of 7 or below (Ki of 100 nM or above)),B (B represents pKi value between 9 and 10 (Ki between 1 nM and 0.1 nM)),A (A represents a value of 3 or above),E (E represents a pKi value of 7 or below (Ki of 100 nM or above)),A (A represents a pIC50 value≥7.5 (IC50≤32 nM)),,
C=CC(=O)N1CC(C)(CCn2c(=O)ccc3cnc(Nc4ccc(N5CCN(C(C)=O)CC5)cc4)nc32)C1 [Example 161],E (E represents a pKi value of 7 or below (Ki of 100 nM or above)),E (E represents a pKi value of 7 or below (Ki of 100 nM or above)),B (B represents pKi value between 9 and 10 (Ki between 1 nM and 0.1 nM)),A (A represents a value of 3 or above),E (E represents a pKi value of 7 or below (Ki of 100 nM or above)),A (A represents a pIC50 value≥7.5 (IC50≤32 nM)),,
C=CC(=O)N1CCN(CCn2c(=O)ccc3cnc(Nc4ccc(N5CCN(C)[C@@H](C)C5)cc4)nc32)[C@@H](C)C1 [Example 251],E (E represents a pKi value of 7 or below (Ki of 100 nM or above)),E (E represents a pKi value of 7 or below (Ki of 100 nM or above)),B (B represents pKi value between 9 and 10 (Ki between 1 nM and 0.1 nM)),,E (E represents a pKi value of 7 or below (Ki of 100 nM or above)),,A (A represents a value of 3 or above),B (B represents a pC50 value between 6.7 (included) and 7.5 (IC50 between 200 nM and 32 nM))
C=CC(=O)N1CCN(C(C)(C)Cn2c(=O)ccc3cnc(Nc4ccc(N5CCN(C)CC5)cc4)nc32)CC1 [Example 164],E (E represents a pKi value of 7 or below (Ki of 100 nM or above)),E (E represents a pKi value of 7 or below (Ki of 100 nM or above)),B (B represents pKi value between 9 and 10 (Ki between 1 nM and 0.1 nM)),A (A represents a value of 3 or above),E (E represents a pKi value of 7 or below (Ki of 100 nM or above)),C (C represents a pIC50 value between 6 and 6.7 (IC50 between 1 μM and 200 nM)),,
C=CC(=O)N1CC(CCn2c(=O)ccc3cnc(Nc4ccc(N5CCN(C)CC5)c(C)c4)nc32)C1 [Example 166],E (E represents a pKi value of 7 or below (Ki of 100 nM or above)),E (E represents a pKi value of 7 or below (Ki of 100 nM or above)),A (A represents a pKi value≥10 (Ki≤0.1 nM)),A (A represents a value of 3 or above),E (E represents a pKi value of 7 or below (Ki of 100 nM or above)),A (A represents a pIC50 value≥7.5 (IC50≤32 nM)),,
C=CC(=O)N1CC(CCn2c(=O)ccc3cnc(Nc4ccc(N5CCN(C(C)=O)C[C@@H]5C)cc4)nc32)C1 [Example 168],E (E represents a pKi value of 7 or below (Ki of 100 nM or above)),E (E represents a pKi value of 7 or below (Ki of 100 nM or above)),A (A represents a pKi value≥10 (Ki≤0.1 nM)),A (A represents a value of 3 or above),E (E represents a pKi value of 7 or below (Ki of 100 nM or above)),A (A represents a pIC50 value≥7.5 (IC50≤32 nM)),,
C=CC(=O)N1CCN(CCn2c(=O)ccc3cnc(Nc4ccc(N5CCN(C(C)=O)CC5)c(Cl)c4)nc32)CC1 [Example 153],E (E represents a pKi value of 7 or below (Ki of 100 nM or above)),E (E represents a pKi value of 7 or below (Ki of 100 nM or above)),B (B represents pKi value between 9 and 10 (Ki between 1 nM and 0.1 nM)),A (A represents a value of 3 or above),E (E represents a pKi value of 7 or below (Ki of 100 nM or above)),C (C represents a pIC50 value between 6 and 6.7 (IC50 between 1 μM and 200 nM)),,
C=CC(=O)N1CC(CCn2c(=O)ccc3cnc(Nc4ccc(N5CCN(C(F)(F)F)CC5)cc4)nc32)C1 [Example 177],E (E represents a pKi value of 7 or below (Ki of 100 nM or above)),E (E represents a pKi value of 7 or below (Ki of 100 nM or above)),B (B represents pKi value between 9 and 10 (Ki between 1 nM and 0.1 nM)),A (A represents a value of 3 or above),E (E represents a pKi value of 7 or below (Ki of 100 nM or above)),B (B represents a pC50 value between 6.7 (included) and 7.5 (IC50 between 200 nM and 32 nM)),,
C=CC(=O)N1CCN(CCn2c(=O)ccc3cnc(Nc4cnn(C)c4)nc32)C(C)(C)C1 [Example 33],E (E represents a pKi value of 7 or below (Ki of 100 nM or above)),E (E represents a pKi value of 7 or below (Ki of 100 nM or above)),A (A represents a pKi value≥10 (Ki≤0.1 nM)),A (A represents a value of 3 or above),E (E represents a pKi value of 7 or below (Ki of 100 nM or above)),B (B represents a pC50 value between 6.7 (included) and 7.5 (IC50 between 200 nM and 32 nM)),,
C=CC(=O)N1CCN(CCn2c(=O)ccc3cnc(Nc4ccc(N5CCN(C(C)(C)C)CC5)cc4)nc32)CC1 [Example 219],E (E represents a pKi value of 7 or below (Ki of 100 nM or above)),E (E represents a pKi value of 7 or below (Ki of 100 nM or above)),B (B represents pKi value between 9 and 10 (Ki between 1 nM and 0.1 nM)),A (A represents a value of 3 or above),E (E represents a pKi value of 7 or below (Ki of 100 nM or above)),A (A represents a pIC50 value≥7.5 (IC50≤32 nM)),,
C=CC(=O)N1CC(CCn2c(=O)ccc3cnc(Nc4cccc(C(C)N5CCN(C(=O)N(C)C)CC5)c4)nc32)C1 (stereo not drawn) [Example 215],E (E represents a pKi value of 7 or below (Ki of 100 nM or above)),E (E represents a pKi value of 7 or below (Ki of 100 nM or above)),B (B represents pKi value between 9 and 10 (Ki between 1 nM and 0.1 nM)),A (A represents a value of 3 or above),E (E represents a pKi value of 7 or below (Ki of 100 nM or above)),B (B represents a pC50 value between 6.7 (included) and 7.5 (IC50 between 200 nM and 32 nM)),,
C=CC(=O)N1CCN(CCn2c(=O)ccc3cnc(Nc4ccc(N5CCN(C(=O)N(C)C)CC5)cc4)nc32)CC1 [Example 146],E (E represents a pKi value of 7 or below (Ki of 100 nM or above)),E (E represents a pKi value of 7 or below (Ki of 100 nM or above)),B (B represents pKi value between 9 and 10 (Ki between 1 nM and 0.1 nM)),A (A represents a value of 3 or above),E (E represents a pKi value of 7 or below (Ki of 100 nM or above)),B (B represents a pC50 value between 6.7 (included) and 7.5 (IC50 between 200 nM and 32 nM)),,
C=CC(=O)N1CC(CCn2c(=O)ccc3cnc(Nc4ccc(N5CCSCC5)c(F)c4)nc32)C1 [Example 53],E (E represents a pKi value of 7 or below (Ki of 100 nM or above)),E (E represents a pKi value of 7 or below (Ki of 100 nM or above)),B (B represents pKi value between 9 and 10 (Ki between 1 nM and 0.1 nM)),A (A represents a value of 3 or above),E (E represents a pKi value of 7 or below (Ki of 100 nM or above)),B (B represents a pC50 value between 6.7 (included) and 7.5 (IC50 between 200 nM and 32 nM)),,
C=CC(=O)N1CC(CCn2c(=O)ccc3cnc(Nc4ccc(N5CCN(C(=O)C(C)C)CC5)cc4)nc32)C1 [Example 75],E (E represents a pKi value of 7 or below (Ki of 100 nM or above)),E (E represents a pKi value of 7 or below (Ki of 100 nM or above)),C (C represents a pKi value between 8 and 9 (Ki between 10 nM and 1 nM)),B (B represents a value of 2.5 to 3),E (E represents a pKi value of 7 or below (Ki of 100 nM or above)),C (C represents a pIC50 value between 6 and 6.7 (IC50 between 1 μM and 200 nM)),,
C=CC(=O)N1CC(CCn2c(=O)ccc3cnc(Nc4ccc(N5CCN(C(C)=O)CC5)nc4)nc32)C1 [Example 183],E (E represents a pKi value of 7 or below (Ki of 100 nM or above)),E (E represents a pKi value of 7 or below (Ki of 100 nM or above)),A (A represents a pKi value≥10 (Ki≤0.1 nM)),A (A represents a value of 3 or above),E (E represents a pKi value of 7 or below (Ki of 100 nM or above)),C (C represents a pIC50 value between 6 and 6.7 (IC50 between 1 μM and 200 nM)),,
